From patent US20120135081A1, “HYDROPHOBINS FOR DISPERSING ACTIVE AGENTS” (TEKNOLOGIAN TUTKIMUSKESKUS VTT, priority 2009, published 2012)

Assay: Particle size and morphology by transmission electron microscopy (TEM)
Format: physicochemical
Procedure: Precipitation of beclomethasone was carried out by modifying a method published earlier, where the drug was crystallised either in pure water or in the presence of a surfactant, Tween-80 (Wang et al. 2007^xi, Matteucci et al., 2006^xii). 34.8 mM beclomethasone dipropionate (BDB, MW 521.1) solution was prepared by dissolving the BDP in methanol. 0.5 ml of BDP solution was poured into 20 ml of pure deionized water with 0-0.15 wt-% (0-208.3 μM) HFBII. The resulting aqueous solution had 0.05 wt-% BDP. Both solutions were filtered with 0.2 μm syringe filter to remove possible impurities prior to use. The receiving liquid was stirred vigorously with a magnetic stirrer and temperature of the solution was controlled by keeping the sample in an ice bath or in room temperature during the precipitation. The precipitate was observed as a turbid solution immediately after BDP addition.
Transmission electron microscopy (TEM): 20 min after precipitation 20 μl of the nanoparticle dispersions were dried on formvar film-coated copper grids with mesh size 300.
The synthesis was done as in the earlier section, except that the drug used was itraconazole. Mass ratios of 2:1, 1:1 and 1:2 of HFBII:itraconazole were tested. TEM was used to study the size and morphology of the particles. […] Monodispersity increased with increasing HFBII amount. […]

CCC(=O)OCC(=O)[C@@]1(OC(=O)CC)[C@@H](C)C[C@H]2[C@@H]3CCC4=CC(=O)C=C[C@]4(C)[C@@]3(Cl)[C@@H](O)C[C@@]21C [BDP, beclomethasone dipropionate]
crystals formed (size and habit) (precipitated from methanol into water without HFBII): a few micrometer long needles | particle size (precipitated with HFBII at room temperature, TEM): several micrometers
